Patent US7557213B2, “Substituted quinolones and methods of use” (ChemoCentryx, Inc., priority 2005, dated 2009)

These compounds were tested against T1, CCXCKR2 receptor (Homo sapiens, UniProt P25106) (assay: Displacement of 125I-labeled SDF-1 from the CCXCKR2 receptor on MCF-7 and/or CCXCKR2-transfected MDA-MB-435S cells (radioligand binding, filtration)). Details: 125I SDF-1, 3 hr at 4° C., MCF-7 and/or MDA-MB-435S cells; read-out: Activity (concentration displacing at least 50% of the SDF-1 from the CCXCKR2 receptor).
T1 construct: expressed in transfected cells; host or cells: MDA-MB-435S transfected with pcDNA3.1(+)-hRDC1 and/or MCF-7 (endogenous receptor)
T1 sequence (P25106 whole entry): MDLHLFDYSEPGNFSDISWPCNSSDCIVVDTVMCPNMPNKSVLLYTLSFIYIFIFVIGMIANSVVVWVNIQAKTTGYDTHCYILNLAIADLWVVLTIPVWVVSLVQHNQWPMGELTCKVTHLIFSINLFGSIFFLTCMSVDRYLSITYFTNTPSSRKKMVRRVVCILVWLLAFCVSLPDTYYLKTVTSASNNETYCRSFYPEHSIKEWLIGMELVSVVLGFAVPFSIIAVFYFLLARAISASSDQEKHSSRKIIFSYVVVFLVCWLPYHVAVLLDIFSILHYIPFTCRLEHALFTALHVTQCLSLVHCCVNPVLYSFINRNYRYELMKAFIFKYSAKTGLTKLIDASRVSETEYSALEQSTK

| Structure (SMILES) | IC50 |
| --- | --- |
| Cc1cccc(Cn2cc(C(=O)c3cccnc3)c(=O)c3ccccc32)c1 [Example 34, 1-(3-Methyl-benzyl)-3-(pyridine-3-carbonyl)-1H-quinolin-4-one] | 500 to 20000 nM |
| Cc1ccc(C(=O)c2cn(Cc3ccccn3)c3ccc(C(F)(F)F)cc3c2=O)cc1C [Example 13] | 500 to 20000 nM |
| Cc1cc(C(=O)c2cn(Cc3cccc(Br)n3)c3ccccc3c2=O)cnc1C [Example 54] | < 100 nM |
| COc1ccc(C(=O)c2cn(Cc3cccc(C)n3)c3nc(C)c(C)cc3c2=O)cc1F [Example 199] | 500 to 20000 nM |
| CC(=O)Nc1cccc(Cn2cc(C(=O)c3ccc(C)c(C)c3)c(=O)c3ccccc32)n1 [Example 52] | 100 to 500 nM |
| Cc1cccc(C(=O)c2cn(Cc3ccccc3F)c3ccccc3c2=O)c1 [Example 21] | < 100 nM |
| COc1ccc(C(=O)c2cn(Cc3cccc(Br)n3)c3nc(C(F)(F)F)ccc3c2=O)cc1F [Example 226] | 500 to 20000 nM |
| Cc1cccc(Cn2cc(C(=O)c3ccc(C)c(C)c3)c(=O)c3ncccc32)n1 [Example 134] | < 100 nM |
| Cc1ccc(C(=O)c2cn(Cc3cccc(S(C)(=O)=O)n3)c3ccccc3c2=O)cc1C [Example 78] | 100 to 500 nM |
| Cc1cccc(Cn2cc(C(=O)c3ccc(C)c(C)c3)c(=O)c3nc(C)ccc32)n1 [Example 130] | < 100 nM |
| O=C(c1ccc(C2OCCCO2)cc1)c1cn(Cc2cccc(Br)n2)c2ccccc2c1=O [Example 137] | 100 to 500 nM |
| Cc1ccc(C(=O)c2cn(Cc3cccc(-c4cncnc4)n3)c3ccccc3c2=O)cc1C [Example 44] | < 100 nM |

Further lines, results first:

| IC50 | Structure (SMILES) |
| --- | --- |
| < 100 nM | Cc1ccc(C(=O)c2cn(Cc3cccc(C(F)(F)F)n3)c3ccccc3c2=O)nc1C [Example 79] |
| < 100 nM | Cc1cccc(Cn2cc(C(=O)c3ccc(C)c(C)n3)c(=O)c3ccccc32)n1 [Example 96] |
| < 100 nM | COc1ccc(C(=O)c2cn(Cc3cccc(Br)n3)c3ncccc3c2=O)cc1 [Example 173] |
| < 100 nM | Cc1cccc(Cn2cc(C(=O)c3ccccc3Br)c(=O)c3ccccc32)n1 [Example 176] |
| < 100 nM | Cc1ccc(C)c(C(=O)c2cn(Cc3cccc(Br)n3)c3ccccc3c2=O)c1 [Example 102] |
